Laboratory results published in US5723609A, “Bis (hydroxymethyl) cyclobutyl purines” (E. R. Squibb & Sons, Inc., priority 1989, dated 1998).
pIC50: −log10 of the molar value. Read-outs that look alike come from different tables or passages of the source.

What was measured:
[1] = test system: VZV; test: VZV plaque reduction antiviral assay in WI-38 cell monolayers; format: cell-based, varicella zoster virus; details: Human alphaherpesvirus 3; VZV strain ELLEN; WI-38 cells; 6-7 days at 37° C.; at least 50% plaque reduction; read-out: ID50 (the source's name)
Description: (§1) Assays were performed in cell culture systems to determine the concentrations of compounds that are effective in preventing several kinds of viral infections.
(§2) HSV-1 (herpes simplex virus type 1, strain Schooler), HSV-2 (herpes simplex virus type 2, strain 186), VZV (varicella zoster virus, strain ELLEN), HCMV (human cytomegalovirus, strain AD 169), MuLV (murine leukemia virus, strain CAS), HIV (human immunodeficiency virus, strain HTLV-IIIB).
(§3) HSV-1, HSV-2, HCMV, and VZV antiviral assays:
(§4) Virus was adsorbed to WI-38 cell culture monolayers in 6 well culture plates (Costar, Cambridge, Mass.) for 1 hour prior to addition of maintenance medium containing duplicate dilutions of the test compound. Inhibition of plaque development was evaluated on fixed and stained monolayers after 4 days incubation at 37° C. for HSV-1 and HSV-2 and after 6-7 days incubation at 37° C. for HCMV and VZV. ID50 values were determined from the drug concentration which conferred at least a 50% plaque reduction compared to virus controls.

[2] = test system: HSV-2; test: HSV-2 plaque reduction antiviral assay in WI-38 cell monolayers; format: cell-based, herpes simplex virus type 2, strain 186
Description: as §1, §2, §3, §4

[3] = test system: HCMV; test: HCMV plaque reduction antiviral assay in WI-38 cell monolayers; format: cell-based, human cytomegalovirus; details: Human betaherpesvirus 5; HCMV strain AD 169; WI-38 cells; 6-7 days at 37° C.; at least 50% plaque reduction; read-out: ID50 (the source's name)
Description: as §1, §2, §3, §4

[4] = test system: HSV-1; test: HSV-1 plaque reduction antiviral assay in WI-38 cell monolayers; format: cell-based, herpes simplex virus type 1; details: Human alphaherpesvirus 1, 96 h; HSV-1 strain Schooler; WI-38 cells; 4 days at 37° C.; at least 50% plaque reduction; read-out: ID50 (the source's name)
Description: as §1, §2, §3, §4

[5] = test system: HIV; test: HIV antiviral assay, cytopathic effect in CEM cells (XTT-PMS); format: cell-based; details: Human immunodeficiency virus 1, CCRF-CEM, 168 h, HIV strain HTLV-IIIB, 7 days at 37° C., inhibits CPE by 50%, read-out: ID50 (the source's name)
Description: as §1, §2
HIV antiviral assay: Suspensions of CEM(Nara and Fischinger, Nature, 332:469, 1988) cells were infected at a multiplicity of infection (e.g. virus/cell) of 0.12 with HIV (strain HTLV-III B). […] Following incubation, viable cell numbers were counted in each well using a colorimetric assay following incubation of cells with XTT-PMS solution (XTT tetrazolium reagent plus phenazine methosulfate PMS).
Percent reduction of vital cytopathic effect (CPE) in drug treated compared to untreated virus infected cells, and percent reduction of cell viability in drug treated uninfected cells compared to untreated controls were calculated and plotted versus the drug concentrations tested. […]

[6] = test system: MuLV; test: MuLV antiviral assay, syncytial plaques (SC-1 cells, XC cell overlay); format: cell-based; details: Murine leukemia virus, SC1, MuLV strain CAS, read-out: ID50 (the source's name)
Description: as §1, §2
Antiviral assays using MuLV were performed with some modification, as described by Rowe et al. and Shannon et al., SC-1 cells were planted at approximately 2×10^5 cell per well in 6 well plates. After overnight incubation at 37° C., the cell cultures were sensitized with DEAE-Dextran for one hour at 37° C., rinsed and inoculated with MuLV. Cultures were re-fed with growth medium containing different concentrations of the test compound. After three more days at 37° C., cultures were re-fed with fresh medium plus test compounds and incubated at 37° C. for an additional 3 days. Cultures were then washed to remove medium, ultraviolet light irradiated, and planted with approximately 5×10^5 XC cells per well in cell growth medium containing the appropriate concentration of the test compound. […] Finally the cultures were rinsed, stained and syncytial plaques were counted.

[7] = Human alphaherpesvirus 2, 96 h, HSV-2 strain 186, WI-38 cells, 4 days at 37° C., at least 50% plaque reduction, read-out: ID50 (the source's name)
[8] = Human alphaherpesvirus 2, WI-38, 96 h, read-out: ID50

SMILES | pIC50 [1] | pIC50 [2, 7] | pIC50 [3] | pIC50 [4] | pIC50 [5] | pIC50 [6] | pIC50 [2, 8]
Nc1nc2c(nnn2[C@@H]2C[C@H](CO)[C@H]2CO)c(=O)[nH]1 (relative stereo) [(1α,2β,3α)-5-Amino-3-[2,3-bis(hydroxymethyl)cyclobutyl]-3,6-dihydro-7H-1,2,3-triazolo[4,5-d]pyrimidin-7-one] | 4.42 to 5.42 | 5.12 | 3.42 | 5.12 | – | – | –
Nc1ccn([C@@H]2C[C@H](CO)[C@H]2CO)c(=O)n1 (relative stereo) [(1α,2β,3α)-4-Amino-1-[2,3-bis(hydroxymethyl)cyclobutyl]-2(1H)-pyrimidinone] | 4.66 | 3.35 | 4.36 to 4.66 | 3.35 | – | – | –
Nc1nc2c(ncn2[C@@H]2C[C@H](CO)[C@H]2CO)c(=O)[nH]1 (relative stereo) [(1α,2β,3α)-9-[2,3-Bis(hydroxymethyl)cyclobutyl]guanine] | 6.70 | 7.10 to 7.40 | 5.42 | 6.70 to 7.10 | 4.52 | 5.42 | –
O=c1[nH]c(=O)n([C@@H]2C[C@H](CO)[C@H]2CO)cc1/C=C/Br (relative stereo) [[1α(E),2β,3α]-1-[2,3-Bis(hydroxymethyl)cyclobutyl]-5-(2-bromoethenyl)-2,4(1H,3H)pyrimidinedione] | 7.22 to 7.52 | – | < 3.52 | 4.52 to 5.00 | – | – | < 3.52
O=c1[nH]c(=O)n([C@@H]2C[C@H](CO)[C@H]2CO)cc1I (relative stereo) [(1α,2β,3α)-1-[2,3-Bis(hydroxymethyl)cyclobutyl]-5-iodo-2,4(1H,3H)-pyrimidinedione] | 4.55 to 4.85 | – | < 3.55 | 4.85 to 5.22 | – | – | < 3.55
Nc1ncnc2c1ncn2[C@@H]1C[C@H](CO)[C@H]1CO (relative stereo) [(1α,2β,3α)-3-(6-Amino-9H-purin-9-yl)-1,2-cyclobutanedimethanol] | 5.70 to 6.10 | 5.10 to 5.40 | 6.10 | 5.10 | 5.17 | – | –
